The source of these data is ChEMBL document CHEMBL1141559, “Alpha-hydroxy amides as a novel class of bradykinin B1 selective antagonists” (Bioorg Med Chem Lett, 2008).

Broadly, the bioavailability is dose-corrected exposure relative to a reference, in per cent. Broadly, the half-life is how long it takes for the measured level to halve. What is called Papp is the rate of passage across a membrane or cell layer, normalised by area and donor concentration. As a reminder, the IC50 is the concentration at which inhibition is half-maximal. By Ki is commonly meant a dissociation constant, usually derived from enzyme kinetics or from competition with a known ligand.

Data set [1] in a line: Oral bioavailability in Sprague-Dawley rat at 10 mg/kg. It is filed as ADME, organism-based. The following applies: in vivo.
A short description of data set [2]: Clearance in Sprague-Dawley rat at 10 mg/kg, po or 2 mg/kg, iv. It is filed as ADME, organism-based. The following applies: in vivo.
Data set [3] can be described thus: Volume of distribution in Sprague-Dawley rat at 10 mg/kg, po or 2 mg/kg, iv. It counts as ADME, organism-based. The following applies: in vivo, read-out: Vdss.
Data set [4] can be described thus: Half life in Sprague-Dawley rat at 10 mg/kg, po or 2 mg/kg, iv. The following applies: in vivo. It counts as ADME, organism-based.
Data set [5] is described as follows: Clearance in Beagle dog at 0.25 mg/kg, iv. It is filed as ADME, organism-based, Canis lupus familiaris. Set-up: dose 0.25 mg/kg, route intravenous. The following applies: in vivo.
The nature of data set [6]: Half life in Beagle dog at 0.25 mg/kg, iv. It counts as ADME, organism-based, Canis lupus familiaris. On the set-up: dose 0.25 mg/kg, route intravenous. The following applies: in vivo.
The nature of data set [7]: Volume of distribution in Beagle dog at 0.25 mg/kg, iv. It counts as ADME, organism-based, Canis lupus familiaris. Set-up: dose 0.25 mg/kg, route intravenous. The conditions noted are these: in vivo.
Data set [8] can be described thus: Apparent permeability across pig LLC-PK1 cells. It counts as ADME, cell-based, Sus scrofa.
For another data set, the system named is LLC-PK1. Description: Ratio of permeability from basolateral to apical over apical to basolateral side of pig MDR1 transfected LLC-PK1 cells. It counts as ADME, cell-based, Sus scrofa.
The target of data set [9] is T1, B1 bradykinin receptor (Homo sapiens, UniProt P46663).
T1 sequence (P46663 whole entry): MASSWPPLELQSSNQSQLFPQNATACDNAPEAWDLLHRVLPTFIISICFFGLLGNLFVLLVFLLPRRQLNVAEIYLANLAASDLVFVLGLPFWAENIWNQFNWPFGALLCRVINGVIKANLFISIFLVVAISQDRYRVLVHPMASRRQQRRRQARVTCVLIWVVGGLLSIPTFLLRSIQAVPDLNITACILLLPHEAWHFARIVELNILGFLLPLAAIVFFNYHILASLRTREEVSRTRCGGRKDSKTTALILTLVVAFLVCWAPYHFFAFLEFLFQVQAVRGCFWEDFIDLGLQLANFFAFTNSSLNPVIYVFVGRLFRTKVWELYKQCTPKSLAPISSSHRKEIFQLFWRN
Description: […] human bradykinin B1 receptor by FLIPR assay.

In data set [10] the target is T1, B1 bradykinin receptor. Description: Binding affinity to human bradykinin B1 receptor expressed in CHO cells. It counts as cell-based.
In another data set the target is Cytochrome P450 2C9 (Homo sapiens, UniProt P11712). The data set is described as follows: Inhibition of CYP2C9. It counts as ADME.
Chain of Cytochrome P450 2C9 (P11712 whole entry): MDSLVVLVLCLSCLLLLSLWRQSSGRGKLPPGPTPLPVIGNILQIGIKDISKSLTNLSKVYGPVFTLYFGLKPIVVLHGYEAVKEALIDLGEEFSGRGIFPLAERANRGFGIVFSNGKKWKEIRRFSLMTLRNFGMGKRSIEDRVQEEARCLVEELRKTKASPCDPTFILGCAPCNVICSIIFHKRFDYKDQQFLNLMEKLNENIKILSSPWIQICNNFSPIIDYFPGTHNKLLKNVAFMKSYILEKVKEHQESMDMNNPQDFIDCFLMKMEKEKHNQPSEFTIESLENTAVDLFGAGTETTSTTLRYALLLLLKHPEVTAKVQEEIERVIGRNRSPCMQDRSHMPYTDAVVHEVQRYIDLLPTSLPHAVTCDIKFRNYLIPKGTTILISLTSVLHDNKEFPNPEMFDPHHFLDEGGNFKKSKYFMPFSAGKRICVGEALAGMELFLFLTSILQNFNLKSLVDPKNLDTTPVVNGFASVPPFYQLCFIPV
Another data set addresses Cytochrome P450 3A4 (Homo sapiens, UniProt P08684). The data set is described as follows: Inhibition of CYP3A4. It is filed as ADME.
The next data set concerns the target Cytochrome P450 2D6 (Homo sapiens, UniProt P10635). Description: Inhibition of CYP2D6. It counts as ADME.
Data set [11] in a line: Clearance in rhesus monkey at 1 mg/kg, po or 1 mg/kg, iv. It is filed as ADME, organism-based, Macaca mulatta. The following applies: in vivo.
The nature of data set [12]: Clearance in Beagle dog at 3 mg/kg, po or 1 mg/kg, iv by cassette dosing. It is filed as ADME, organism-based, Canis lupus familiaris. The conditions noted are these: in vivo.
A short description of data set [13]: Half life in Beagle dog at 3 mg/kg, po or 1 mg/kg, iv by cassette dosing. The following applies: in vivo. It counts as ADME, organism-based, Canis lupus familiaris.
The nature of data set [14]: Oral bioavailability in rhesus monkey at 1 mg/kg. The following applies: in vivo. It is filed as ADME, organism-based, Macaca mulatta.
The nature of data set [15]: Half life in rhesus monkey at 1 mg/kg, po or 1 mg/kg, iv. It counts as ADME, organism-based, Macaca mulatta. The following applies: in vivo.
Data set [16] in a line: Oral bioavailability in Beagle dog at 3 mg/kg by cassette dosing. It counts as ADME, organism-based, Canis lupus familiaris. The following applies: in vivo.

Chain of Cytochrome P450 2D6 (P10635 whole entry): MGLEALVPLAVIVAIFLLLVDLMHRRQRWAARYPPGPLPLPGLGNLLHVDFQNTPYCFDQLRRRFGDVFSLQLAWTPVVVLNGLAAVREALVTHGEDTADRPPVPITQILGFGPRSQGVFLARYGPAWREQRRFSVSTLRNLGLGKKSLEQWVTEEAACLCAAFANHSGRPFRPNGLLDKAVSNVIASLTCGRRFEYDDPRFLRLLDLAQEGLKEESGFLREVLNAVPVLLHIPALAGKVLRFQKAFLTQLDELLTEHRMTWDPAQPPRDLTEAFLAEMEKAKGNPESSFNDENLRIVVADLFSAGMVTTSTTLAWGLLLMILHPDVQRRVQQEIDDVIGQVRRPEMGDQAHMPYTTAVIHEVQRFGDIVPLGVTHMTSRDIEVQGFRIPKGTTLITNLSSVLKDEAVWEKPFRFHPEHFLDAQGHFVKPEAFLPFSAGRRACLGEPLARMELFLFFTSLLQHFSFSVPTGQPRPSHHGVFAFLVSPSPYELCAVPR
Chain of Cytochrome P450 3A4 (P08684 whole entry): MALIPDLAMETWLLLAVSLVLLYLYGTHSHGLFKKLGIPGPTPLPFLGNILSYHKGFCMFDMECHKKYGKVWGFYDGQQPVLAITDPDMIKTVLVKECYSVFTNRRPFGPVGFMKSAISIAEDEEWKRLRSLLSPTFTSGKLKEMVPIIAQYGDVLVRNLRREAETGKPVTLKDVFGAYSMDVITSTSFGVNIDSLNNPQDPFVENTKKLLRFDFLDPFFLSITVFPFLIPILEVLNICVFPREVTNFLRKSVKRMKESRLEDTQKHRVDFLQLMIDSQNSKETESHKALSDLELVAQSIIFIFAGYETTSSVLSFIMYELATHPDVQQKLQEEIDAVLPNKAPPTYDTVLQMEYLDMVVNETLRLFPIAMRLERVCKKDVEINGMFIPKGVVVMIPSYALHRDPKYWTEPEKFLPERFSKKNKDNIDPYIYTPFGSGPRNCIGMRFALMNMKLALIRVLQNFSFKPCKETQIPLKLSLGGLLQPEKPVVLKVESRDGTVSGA

`COC(=O)c1c(Cl)cc(Cl)cc1-c1cnc([C@@H](C)NC(=O)[C@@](C)(O)C(F)(F)F)c(F)c1` showed a bioavailability in data set [1] of 47%. The clearance in data set [2] was found to be 7.8 mL/min/kg; in data set [5] it was 3.2 mL/min/kg. The Vd in data set [3] was found to be 1.2 L/kg; in data set [7], 0.73 L/kg. Besides, the half-life in data set [4] was 5.6 h; in [6], 3.6 h. In addition, the Papp in data set [8] was determined as 23 ×10⁻⁶ cm/s. For the same compound, the Ratio with LLC-PK1 worked out at 1.6. For the same compound, at B1 bradykinin receptor [9], the half-inhibitory concentration (IC50) stood at 3.93 nM. On B1 bradykinin receptor [10], affinity was put at a Ki of 0.35 nM.

For `CCC(O)(CC)C(=O)NCc1ccc(-c2cccc(F)c2C(=O)OC)cc1F`, on B1 bradykinin receptor [10], affinity was put at a Ki of 1090 nM.

Turning to `COC(=O)c1c(F)cccc1-c1ccc(CNC(=O)C(O)(C(F)(F)F)C(F)(F)F)c(F)c1`, on B1 bradykinin receptor [10], the Ki worked out at 95 nM.

Regarding `COC(=O)c1c(F)cccc1-c1ccc(CNC(=O)CO)c(F)c1`, the affinity on B1 bradykinin receptor [10], expressed as Ki, was 516 nM.

In turn, `Cc1noc(-c2c(Cl)cc(Cl)cc2-c2cnc([C@@H](C)NC(=O)[C@@](C)(O)C(F)(F)F)c(F)c2)n1` displayed a bioavailability in data set [1] of 21%. Further, the values for the clearance in data set [2] and in data set [5] were 20 mL/min/kg and 0.91 mL/min/kg, respectively. Also, the Vd in [3] was determined as 1 L/kg; in data set [7], 0.66 L/kg. Further, the results for the half-life in data set [4] and in data set [6] were 3.9 h and 9.5 h, respectively. Besides, the apparent permeability (Papp) in [8] turned out to be 33 ×10⁻⁶ cm/s. For the same compound, the Ratio in the data set with LLC-PK1 turned out to be 1.3. At B1 bradykinin receptor [9], this compound registered an IC50 of 6.65 nM. For the same compound, the Ki on B1 bradykinin receptor [10] was 0.79 nM.

Compound `C[C@@H](NC(=O)[C@@](C)(O)C(F)(F)F)c1ncc(-c2cc(Cl)cc(F)c2-c2nnn(C)n2)cc1F` yielded a bioavailability in data set [1] of 53%. The clearance in data set [2] was determined as 1 mL/min/kg; in data set [5] it was 0.22 mL/min/kg. The Vd in data set [3] stood at 0.54 L/kg; in data set [7], 0.47 L/kg. Moreover, the IC50 against Cytochrome P450 2C9 is more than 10000 nM; against Cytochrome P450 3A4, more than 10000 nM; against Cytochrome P450 2D6, more than 10000 nM; at B1 bradykinin receptor [9], 4.9 nM. Moreover, the figures for the half-life in data set [4] and in [6] were 27 h and 38 h, respectively. Further, the Papp in data set [8] was 36 ×10⁻⁶ cm/s. Besides, the Ratio with LLC-PK1 was determined as 2.8. On B1 bradykinin receptor [10], this compound had a Ki of 0.59 nM.

As to `Cc1noc(-c2c(F)cc(Cl)cc2-c2cnc([C@@H](C)NC(=O)[C@@](C)(O)C(F)(F)F)c(F)c2)n1`, the bioavailability in data set [1] turned out to be 32%. Further, the values for the clearance in data set [2] and in data set [5] were 22 mL/min/kg and 1 mL/min/kg, respectively. The Vd is 1.3 L/kg in [3] and 1.2 L/kg in [7]. The half-life in data set [4] is 1.2 h; in data set [6] it was 15 h. Further, in [8], the apparent permeability (Papp) is 35 ×10⁻⁶ cm/s. Besides, the Ratio in the data set with LLC-PK1 came to 1.7. Further, the IC50 on B1 bradykinin receptor [9] is 6.65 nM. Moreover, the inhibition constant (Ki) at B1 bradykinin receptor [10] stood at 0.66 nM.

For the compound `COC(=O)c1c(F)cccc1-c1ccc(CNC(=O)[C@@H](O)C(C)C)c(F)c1`, the Ki at B1 bradykinin receptor [10] is 71.5 nM.

The compound `COC(=O)c1c(F)cccc1-c1ccc(CNC(=O)[C@@H](O)C(F)(F)F)c(F)c1` came in with a Ki at B1 bradykinin receptor [10] of 109 nM.

Take `COC(=O)c1c(F)cccc1-c1ccc(CNC(=O)[C@H](C)O)c(F)c1`: affinity at B1 bradykinin receptor [10] was put at a Ki of 660 nM.

Take `C[C@@H](NC(=O)[C@@](C)(O)C(F)(F)F)c1ncc(-c2cc(Cl)cc(F)c2-c2nnn(C)n2)cc1Cl`: in data set [1], the bioavailability is 71%. Further, the clearance in [2] turned out to be 2.4 mL/min/kg; in [5], 1.3 mL/min/kg. Moreover, the Vd in data set [3] was found to be 0.86 L/kg; in [7] it was 0.74 L/kg. The half-life in [4] was 4.9 h; in [6], 9.8 h. The Papp in [8] amounted to 26 ×10⁻⁶ cm/s. Moreover, the Ratio in the data set with LLC-PK1 came out at 1.8. The compound further showed a Ki on B1 bradykinin receptor [10] of 0.43 nM.

As to `COC(=O)c1c(F)cccc1-c1ccc(CNC(=O)[C@@H](O)C(C)(C)C)c(F)c1`, the Ki at B1 bradykinin receptor [10] was found to be 88.5 nM.

In turn, `COC(=O)c1c(F)cccc1-c1ccc(CNC(=O)[C@@](C)(O)C(C)C)c(F)c1` yielded a Ki at B1 bradykinin receptor [10] of 83.5 nM.

On to `COC(=O)c1c(F)cccc1-c1ccc(CNC(=O)[C@H](O)C(F)(F)F)c(F)c1`, for which, at B1 bradykinin receptor [10], the affinity corresponds to a Ki of 479 nM.

For the compound `COC(=O)c1c(F)cccc1-c1ccc(CNC(=O)[C@@](C)(O)C(F)(F)F)c(F)c1`, in [5], the clearance turned out to be 16 mL/min/kg. The half-life in data set [6] was 1.4 h. For the same compound, in data set [7], the Vd is 1.2 L/kg. In addition, the Papp in [8] worked out at 32 ×10⁻⁶ cm/s. The Ratio in the data set with LLC-PK1 is given as 1.6. For the same compound, on B1 bradykinin receptor [9], the IC50 was 43.6 nM. In addition, the Ki at B1 bradykinin receptor [10] came to 24.5 nM.

For `Cc1nc(-c2c(F)cc(Cl)cc2-c2cnc([C@@H](C)NC(=O)[C@@](C)(O)C(F)(F)F)c(F)c2)no1`, the bioavailability came out at 34% in data set [1], 52% in data set [14] and 84% in data set [16]. Further, the clearance in data set [2] stood at 4.9 mL/min/kg; in [11] it was 7.1 mL/min/kg; in [12], 0.45 mL/min/kg; in data set [5] it was 0.42 mL/min/kg. The Vd was 0.52 L/kg in data set [3] and 0.51 L/kg in data set [7]. For the same compound, the half-life was 2 h in [4], 11 h in [13], 17 h in data set [6] and 1.3 h in [15]. Further, in [8], the Papp worked out at 27 ×10⁻⁶ cm/s.

At B1 bradykinin receptor [10], `COC(=O)c1c(F)cccc1-c1ccc(CNC(=O)[C@@H](C)O)c(F)c1` yielded a Ki of 1050 nM.

Compound `COC(=O)c1c(F)cccc1-c1ccc(CNC(=O)[C@](C)(O)C(F)(F)F)c(F)c1` yielded a Ki on B1 bradykinin receptor [10] of 579 nM.

As to `COC(=O)c1c(F)cccc1-c1ccc(CNC(=O)C2(NC(=O)C(F)(F)F)CC2)c(F)c1`, the Ratio in the data set on LLC-PK1 stood at 4.1.

For `COC(=O)c1c(F)cccc1-c1ccc(CNC(=O)C(C)(C)O)c(F)c1`, at B1 bradykinin receptor [10], the Ki was determined as 125 nM.

For the compound `COC(=O)c1c(F)cccc1-c1ccc(CNC(=O)C2(O)CC2)c(F)c1`, on B1 bradykinin receptor [10], the affinity corresponds to a Ki of 59.1 nM.
